From patent US9005608B2, “Stabilized solubility-enhanced formulations for oral delivery” (Adds Pharmaceuticals LLC, priority 2009, dated 2015)
Converted amounts (≈) assume the structure as drawn.

Key:
[1] = CoQ10 solubility/concentration in non-aqueous formulations at elevated temperature; format: physicochemical; details: for solubility: organic solvent or mixture
Source text: While not intending to be bound to any theory, we posit that when a poorly water-soluble agent is incorporated into a porous carrier with narrow pores, it experiences strong geometric restrictions and large interfacial interactions with the porous matrix. […] Thus, absorbing a previously solubilized CoQ10 liquid formulation, for example, into the narrow pore channels of Fujicalin® (calcium hydrogen phosphate) inhibits re-crystallization and aggregation of CoQ10. This enables, to a large extent, even dispersion and distribution of pharmaceutically active forms of CoQ10 in solubilized form. After the Fujicalin® porous particulates dissolve in acidic gastric fluid, the SSS is released and the trapped SEF self-emulsifies in the fluid to form droplets of sufficiently small size, thereby facilitating absorption of CoQ10 cross the epithelial cells. Other porous particulates include silicon dioxide and magnesium aluminum metasilicate. Combinations may also be used.
CoQ10 in a concentration of >100 mg/ml in a non-aqueous formulation, preferably SEF, at a temperature above 25° C., preferably at or above 48° C. has been achieved.
The invention formulations solubilize CoQ10 at a concentration of >100 mg/ml at a temperature between 30° C. and 60° C., preferably not above 50° C. In addition, the nutrient/vitamin components readily dissolve in aqueous media, so that >75% of these components are released within an hour.

[2] = CoQ10 solubility at 37° C. in water and in placebo AQUA Q10 formulation; format: physicochemical
Experimental: CoQ10 solubility was measured at 37° C. in water as well as in a placebo AQUA Q10 formulation, i.e., Incromega™ E3322, Capmul™ CMC C-8, and Cremophor™ EL at weight ratio of 40/25/20.

solubility ([1]; invention formulations, temperature between 30° C. and 60° C., preferably not above 50° C., read-out: CoQ10 concentration solubilized by the invention formulations): > 100 mg/mL
solubility ([1]; non-aqueous formulations, elevated temperature close to its melting temperature (48° C.), read-out: solubility of CoQ10 in non-aqueous formulations): > 100 mg/mL
CoQ10 concentration in a non-aqueous formulation ([1]; preferably SEF, temperature above 25° C., preferably at or above 48° C.): > 100 mg/mL
CoQ10 solubility in AQUA Q10 formulation relative to solubility in water [2]: over 400,000 times
solubility ([2]; placebo AQUA Q10 formulation, oil or lipid, placebo Incromega E3322/Capmul CMC C-8/Cremophor EL 40/25/20, read-out: CoQ10 solubility in AQUA Q10 formulation): 177 mg/mL (≈ 205 mM)
solubility ([2]; water, read-out: CoQ10 solubility in water): 0.0004 mg/mL (≈ 0.000463 mM)
Compound: COC1=C(OC)C(=O)C(C/C=C(\C)CC/C=C(\C)CC/C=C(\C)CC/C=C(\C)CC/C=C(\C)CC/C=C(\C)CC/C=C(\C)CC/C=C(\C)CC/C=C(\C)CCC=C(C)C)=C(C)C1=O [CoQ10, Coenzyme Q10]
